Type in all cases: functional
Test [1] has as its system Staphylococcus aureus. The test can be described thus: Antibacterial activity against methicillin-resistant Staphylococcus aureus ATCC 4330 assessed as inhibition of bacterial growth incubated for 24 hrs by broth dilution method.
The subject of test [2] is Staphylococcus aureus. The test can be described thus: Antibacterial activity against methicillin-resistant Staphylococcus aureus ATCC 3392 assessed as inhibition of bacterial growth incubated for 24 hrs by broth dilution method.
In test [3] the test system is Staphylococcus aureus. The test can be described thus: Antibacterial activity against Methicillin-resistant Staphylococcus aureus USA300 assessed as inhibition of bacterial growth incubated for 24 hrs by broth dilution method.
The test system of test [4] is Klebsiella pneumoniae. In words: Antibacterial activity against Klebsiella pneumoniae […] assessed as inhibition of bacterial growth incubated for 24 hrs by broth dilution method.
Test [5] relates to Escherichia coli. The test can be described thus: Antibacterial activity against Escherichia coli ATCC 11775 assessed as inhibition of bacterial growth incubated for 24 hrs by broth dilution method.
For test [6], the system named is Staphylococcus aureus. The test can be described thus: Bactericidal activity against methicillin-resistant Staphylococcus aureus ATCC 3392 assessed as inhibition of bacterial growth incubated for 24 hrs by broth dilution method.
Test [7] concerns Staphylococcus aureus. The test can be described thus: Bactericidal against methicillin-resistant Staphylococcus aureus ATCC 4330 assessed as inhibition of bacterial growth incubated for 24 hrs by broth dilution method.
In test [8] the test system is Pseudomonas aeruginosa. In words: Antibacterial activity against Pseudomonas aeruginosa […] assessed as inhibition of bacterial growth incubated for 24 hrs by broth dilution method.
In test [9] the test system is Staphylococcus aureus. The test can be described thus: Selectivity index, ratio of MBC for bactericidal against methicillin-resistant Staphylococcus aureus ATCC 4330 to MIC for antibacterial activity against methicillin-resistant Staphylococcus aureus ATCC 4330.
For test [10], the system named is Staphylococcus aureus. The test can be described thus: Selectivity index, ratio of MBC for bactericidal against methicillin-resistant Staphylococcus aureus ATCC 3392 to MIC for antibacterial activity against methicillin-resistant Staphylococcus aureus ATCC 3392.

Here are results for 43 molecules from ChEMBL document CHEMBL5634137, “2,4-Diacetylphloroglucinol (DAPG) derivatives rapidly eradicate methicillin-resistant staphylococcus aureus without resistance development by disrupting membrane” (Eur J Med Chem, 2023).

Values after ≈ are worked out from the molar mass of the structure shown.

On to `COc1cc(OC)c(C(C)=O)c(O)c1C(C)=O`, for which the MIC in test [1] and in [2] was > 64 µg/mL in each case.

`CCCCCCCCCC(=O)c1c(O)cc(O)cc1O`: the MIC in test [1] and in [2] was 32 µg/mL (≈ 114 µM) each time.

For `CCCCCCCCC(=O)c1c(O)cc(O)c(C(=O)CCCCCCCC)c1O`, the minimal inhibitory concentration (MIC) amounted to 2 µg/mL (≈ 4.92 µM) in test [1] and 4 µg/mL (≈ 9.84 µM) in [2].

`O=C(c1c(O)cc(O)cc1O)C1CC1`: the MIC in test [1] turned out to be 16 µg/mL (≈ 82.4 µM); in test [2], 32 µg/mL (≈ 165 µM).

For the molecule `C[C@H]1c2cccc(O)c2C(=O)C2=C(O)[C@]3(O)C(=O)C(C(N)=O)=C(O)[C@@H](N(C)C)[C@@H]3[C@@H](O)[C@@H]21` [DOXYCYCLINE ANHYDROUS], the MIC in test [3] was determined as 0.5 µg/mL (≈ 1.13 µM).

With `CC(=O)c1c(O)cc(O)cc1O` [2,4,6-TRIHYDROXYACETOPHENONE], the minimum inhibitory concentration (MIC) in test [1] and in test [2] was > 64 µg/mL each time.

As to `CCCCC(=O)c1c(O)cc(O)c(C(C)=O)c1O`, the minimum inhibitory concentration (MIC) worked out at 4 µg/mL (≈ 15.9 µM) in test [1] and 8 µg/mL (≈ 31.7 µM) in [2].

Consider `O=C(O)c1cn(C2CC2)c2cc(N3CCNCC3)c(F)cc2c1=O` [CIPROFLOXACIN], for which the MIC in [3], in [1] and in test [2] was 0.25 µg/mL (≈ 0.754 µM) throughout.

Take `CCC(=O)c1c(O)cc(O)cc1O` [FLOPROPIONE]: the minimum inhibitory concentration (MIC) in test [1] and in [2] was > 64 µg/mL in each case.

Consider `O=Cc1c(O)cc(O)cc1O` [PHLOROGLUCINALDEHYDE], for which the minimal inhibitory concentration (MIC) in test [1] and in test [2] was > 64 µg/mL in each case.

Regarding `O=C(c1c(O)cc(O)cc1O)C1CCCCC1`, the minimum inhibitory concentration (MIC) in test [1] is 64 µg/mL (≈ 271 µM); in test [2], > 64 µg/mL.

Consider `CCCCC(=O)c1c(O)cc(O)cc1O`, for which the minimum inhibitory concentration (MIC) in test [1] and in test [2] was > 64 µg/mL each time.

Consider `CCCCC(=O)c1c(O)cc(O)c(C(=O)CCCC)c1O`, for which the MIC was 0.5 µg/mL (≈ 1.7 µM) in test [3]; > 64 µg/mL in [4]; 2 µg/mL (≈ 6.79 µM) in [1]; 2 µg/mL (≈ 6.79 µM) in [2]; 64 µg/mL (≈ 217 µM) in test [5]; > 64 µg/mL in test [8]. For the same molecule, the MBC in [6] came to 4 µg/mL (≈ 13.6 µM); in [7] it was 2 µg/mL (≈ 6.79 µM).

With `COc1cc(O)c(C(C)=O)c(O)c1C(C)=O`, the MIC in [1] and in [2] was > 64 µg/mL throughout.

Turning to `O=Cc1c(O)cc(O)c(C=O)c1O`, the MIC in [1] and in test [2] was > 64 µg/mL throughout.

As to `CCCCCC(=O)c1c(O)cc(O)cc1O`, the MIC in test [1] and in test [2] was 32 µg/mL (≈ 143 µM) each time.

In the case of `CC(C)C(=O)c1c(O)cc(O)cc1O` [PHLOROISOBUTYROPHENONE], the minimal inhibitory concentration (MIC) worked out at 32 µg/mL (≈ 163 µM) in [1] and 64 µg/mL (≈ 326 µM) in test [2].

On to `CCCCCCCCCCCCCCCC(=O)c1c(O)cc(O)c(C(=O)CCCCCCCCCCCCCCC)c1O`, for which the MIC in [1] and in [2] was > 64 µg/mL each time.

As for `O=C(c1c(O)cc(O)c(C(=O)C2CC2)c1O)C1CC1`, the minimum inhibitory concentration (MIC) in [1] and in test [2] was 8 µg/mL (≈ 30.5 µM) throughout.

With `CC(C)(C)CC(=O)c1c(O)cc(O)c(C(=O)CC(C)(C)C)c1O`, the minimum inhibitory concentration (MIC) in test [3] is 0.5 µg/mL (≈ 1.55 µM); in [4] it was > 64 µg/mL; in [1], 0.5 µg/mL (≈ 1.55 µM); in [2] it was 0.5 µg/mL (≈ 1.55 µM); in [5], > 64 µg/mL; in test [8], > 64 µg/mL. Besides, the “Selectivity Index” value in test [9] and in test [10] was 8 throughout. The minimum bactericidal concentration (MBC) in [6] and in test [7] was 4 µg/mL (≈ 12.4 µM) in each case.

As to `CCCCCCCC(=O)c1c(O)cc(O)c(C(=O)CCCCCCC)c1O`, the MIC in test [3] was 2 µg/mL (≈ 5.28 µM); in [4], > 64 µg/mL; in test [1] it was 1 µg/mL (≈ 2.64 µM); in [2] it was 2 µg/mL (≈ 5.28 µM); in [5], > 64 µg/mL; in test [8] it was > 64 µg/mL. Moreover, the “Selectivity Index” value in test [9] and in test [10] was 1 in each case. The minimal bactericidal concentration (MBC) in [6] was found to be 2 µg/mL (≈ 5.28 µM); in [7] it was 1 µg/mL (≈ 2.64 µM).

Regarding `O=C(c1c(O)cc(O)c(C(=O)C2CCC2)c1O)C1CCC1`, the MIC is 1 µg/mL (≈ 3.44 µM) in test [3]; > 64 µg/mL in [4]; 2 µg/mL (≈ 6.89 µM) in [1]; 2 µg/mL (≈ 6.89 µM) in test [2]; 64 µg/mL (≈ 220 µM) in test [5]; > 64 µg/mL in test [8]. The “Selectivity Index” value in test [9] is 2; in [10], 4. Further, the MBC in test [6] was 8 µg/mL (≈ 27.6 µM); in [7] it was 4 µg/mL (≈ 13.8 µM).

For `CCCC(=O)c1c(O)cc(O)c(C(=O)CCC)c1O`, the minimal inhibitory concentration (MIC) in [1] and in [2] was 4 µg/mL (≈ 15 µM) each time.

Regarding `CCCCCCCCC(=O)c1c(O)cc(O)cc1O`, the MIC in [1] and in [2] was 8 µg/mL (≈ 30 µM) throughout.

For the molecule `O=C(c1c(O)cc(O)c(C(=O)C2CCCCC2)c1O)C1CCCCC1`, the minimal inhibitory concentration (MIC) in test [3] was 0.5 µg/mL (≈ 1.44 µM); in test [4] it was > 64 µg/mL; in test [1], 1 µg/mL (≈ 2.89 µM); in [2], 0.5 µg/mL (≈ 1.44 µM); in test [5], > 64 µg/mL; in [8], > 64 µg/mL. In addition, the “Selectivity Index” value in test [9] worked out at 8; in test [10], 4. Besides, the MBC came to 2 µg/mL (≈ 5.77 µM) in test [6] and 8 µg/mL (≈ 23.1 µM) in test [7].

On to `O=C(Cc1ccccc1)c1c(O)cc(O)c(C(=O)Cc2ccccc2)c1O`, for which the minimal inhibitory concentration (MIC) is 1 µg/mL (≈ 2.76 µM) in test [3]; > 64 µg/mL in [4]; 0.5 µg/mL (≈ 1.38 µM) in test [1]; 1 µg/mL (≈ 2.76 µM) in [2]; 64 µg/mL (≈ 177 µM) in [5]; > 64 µg/mL in [8]. In addition, the MBC in test [6] and in test [7] was 8 µg/mL (≈ 22.1 µM) throughout. The “Selectivity Index” value in test [10] worked out at 8.

Consider `COc1cc(O)c(C(C)=O)c(OC)c1C(C)=O`, for which the MIC in test [1] and in test [2] was > 64 µg/mL throughout.

In the case of `CCCCCCCC(=O)c1c(O)cc(O)cc1O`, the MIC in test [1] and in [2] was 8 µg/mL (≈ 31.7 µM) in each case.

With `COc1cc(OC)c(C(C)=O)c(OC)c1C(C)=O`, the minimum inhibitory concentration (MIC) in [1] and in [2] was > 64 µg/mL in each case.

Take `CCC(C)C(=O)c1c(O)cc(O)c(C(=O)C(C)CC)c1O` (stereo not given): the MIC in [1] and in test [2] was 4 µg/mL (≈ 13.6 µM) in each case.

Regarding `CCCCCCC(=O)c1c(O)cc(O)cc1O`, the minimal inhibitory concentration (MIC) in test [1] and in test [2] was 16 µg/mL (≈ 67.1 µM) each time.

For `CCCC(=O)c1c(O)cc(O)cc1O`, the minimum inhibitory concentration (MIC) in test [1] and in test [2] was > 64 µg/mL in each case.

On to `CC1(C)S[C@@H]2[C@H](NC(=O)[C@H](N)c3ccc(O)cc3)C(=O)N2[C@H]1C(=O)O` [AMOXICILLIN], for which the MIC in test [3] turned out to be 128 µg/mL (≈ 350 µM).

`CC(C)C(=O)c1c(O)cc(O)c(C(=O)C(C)C)c1O`: the minimal inhibitory concentration (MIC) in [1] and in test [2] was 4 µg/mL (≈ 15 µM) in each case.

For `CC(C)(C)CC(=O)c1c(O)cc(O)cc1O`, the minimum inhibitory concentration (MIC) in [1] was 64 µg/mL (≈ 285 µM); in [2] it was > 64 µg/mL.

On to `CC(C)CCC(=O)c1c(O)cc(O)cc1O`, for which the minimum inhibitory concentration (MIC) amounted to 32 µg/mL (≈ 143 µM) in [1] and 64 µg/mL (≈ 285 µM) in [2].

Regarding `O=C(c1c(O)cc(O)cc1O)C1CCCC1`, the minimum inhibitory concentration (MIC) in [1] and in test [2] was 64 µg/mL (≈ 288 µM) in each case.

On to `CCC(=O)c1c(O)cc(O)c(C(=O)CC)c1O`, for which the results for the minimal inhibitory concentration (MIC) in test [1] and in [2] were 4 µg/mL (≈ 16.8 µM) and 8 µg/mL (≈ 33.6 µM), respectively.

On to `CCCCCCCCCCCCCCCC(=O)c1c(O)cc(O)cc1O`, for which the minimum inhibitory concentration (MIC) in test [1] and in [2] was > 64 µg/mL in each case.

For the molecule `CCC(C)C(=O)c1c(O)cc(O)cc1O` (stereo not given), the MIC in test [1] is 32 µg/mL (≈ 152 µM); in test [2], > 64 µg/mL.

Consider `CCCCCCCCCC(=O)c1c(O)cc(O)c(C(=O)CCCCCCCCC)c1O`, for which the MIC in test [1] and in test [2] was 8 µg/mL (≈ 18.4 µM) in each case.

Turning to `O=C(Cc1ccccc1)c1c(O)cc(O)cc1O`, the MIC is 32 µg/mL (≈ 131 µM) in test [1] and > 64 µg/mL in test [2].

For `O=C(c1c(O)cc(O)cc1O)C1CCC1`, the MIC in test [1] and in test [2] was 32 µg/mL (≈ 154 µM) throughout.
